Type in all cases: cell-based
Common to all, as to conditions: unit assumed

The test system of assay [1] is Acinetobacter baumanii/haemolyticus: Multidrug-resistant clinical isolate (AB-3167). The assay can be described thus: MIC determination (CLSI), strain AB-3167. The protocol:
The in vitro antibacterial activity of compounds described in the Examples was evaluated by minimum inhibitory concentration (MIC) testing according to Clinical and Laboratory Standards Institute (CLSI, formerly NCCLS) guidelines. See: Clinical and Laboratory Standards Institute. Methods for Dilution Antimicrobial Susceptibility Tests for Bacteria that Grow Aerobically; Approved Standard-Seventh Edition. CLSI document M7-A7 [ISBN 1-56238-587-9]. Clinical and Laboratory Standards Institute, 940 West Valley Road, Suite 1400, Wayne, Pa. 19087-1898 USA, 2006; also Clinical and Laboratory Standards Institute. Performance Standards for Antimicrobial Susceptibility Testing; Eighteenth Informational Supplement. CLSI document M100-S18 [ISBN1-56238-653-0].Clinical and Laboratory Standards Institute.
The following bacterial strains were used in these MIC determinations:
2) Acinetobacter baumanii/haemolyticus: Multidrug-resistant clinical isolate labeled as AB-3167 in Tables 4 and 5;

Assay [2] concerns Pseudomonas aeruginosa UI-18: Wild-type (PA-7). Description: MIC determination (CLSI), strain PA-7. Summed up: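 MIC determined by broth dilution per CLSI M7-A7 guidelines with M100-S18 interpretive standards. Test organism: wild-type Pseudomonas aeruginosa UI-18, designated PA-7.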
The test system of assay [3] is Escherichia coli EC-1: VOGEL, mouse virulent. Description: MIC determination (CLSI), strain EC-1. Summed up:
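The mouse-virulent VOGEL isolate of E. coli, EC-1, served as test organism. Minimum inhibitory concentration was measured by CLSI dilution methodology (M7-A7; M100-S18 standards).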

The mark [4] stands for this setting: Pseudomonas aeruginosa UI-18, wild-type.
The mark [5] stands for this setting: Escherichia coli EC-1, VOGEL, mouse virulent.

Counter-ions that a name gives are not always drawn.

Among the data in patent US8846933B2, “N-link hydroxamic acid derivatives useful as antibacterial agents” (Pfizer Inc., priority 2009, dated 2014) are AB-3167 (MIC), PA-7 (MIC) and EC-1 (MIC) values, retold here.

`CC(CCn1ccc(-c2ccc(OCCCN3CCC(F)(F)CC3)cc2)cc1=O)(C(=O)NO)S(C)(=O)=O` (racemic) [Example 4, (+/−)-4-[4-{4-[3-(4,4-Difluoropiperidin-1-yl)propoxy]phenyl}-2-oxopyridin-1(2H)-yl]-N-hydroxy-2-methyl-2-(methylsulfonyl)butanamide hydrochloride]: in assay [1], the AB-3167 (MIC) is above 64 µg/mL. This compound came in with a PA-7 (MIC) in assay [2] (setting [4]) of 4 µg/mL. The same compound registered an EC-1 (MIC) in assay [3] (setting [5]) of 1 µg/mL.
Taken in the same sequence, the figures for `CC(CCn1ccc(-c2cc3ccccc3o2)cc1=O)(C(=O)NO)S(C)(=O)=O` (racemic) [Example 33, (+/−)-4-[4-(1-benzofuran-2-yl)-2-oxopyridin-1(2H)-yl]-N-hydroxy-2-methyl-2-(methylsulfonyl)butanamide] were above 64 µg/mL, 2 µg/mL and 1 µg/mL.
In the same order, the values of `COc1ccc2cc(-c3ccn(CCC(C)(C(=O)NO)S(C)(=O)=O)c(=O)c3)ccc2c1` (racemic) [Example 34, (+/−)-N-hydroxy-4-[4-(6-methoxy-2-naphthyl)-2-oxopyridin-1(2H)-yl]-2-methyl-2-(methylsulfonyl)butanamide] are 8 µg/mL, 1 µg/mL and below 0.06 µg/mL.
In turn, `CC(CCn1ccc(-c2ccc(-c3ccncc3)cc2)cc1=O)(C(=O)NO)S(C)(=O)=O` (racemic) [Example 35, N-Hydroxy-2-methyl-2-(methylsulfonyl)-4-[2-oxo-4-(4-pyridin-4-ylphenyl)pyridin-1(2H)-yl]butanamide] displayed an AB-3167 (MIC) in assay [1] above 64 µg/mL. The PA-7 (MIC) in assay [2] (setting [4]) worked out at 2 µg/mL. Also, the EC-1 (MIC) in assay [3] (setting [5]) came to 0.5 µg/mL.
In the same order, the values of `C[C@@](CCn1ccc(-c2ccc(-n3cccn3)cc2)cc1=O)(C(=O)NO)S(C)(=O)=O` [Example 1, (2R)-N-hydroxy-2-methyl-2-(methylsulfonyl)-4-{2-oxo-4-[4-(1H-pyrazol-1-yl)phenyl]pyridin-1(2H)-yl}butanamide] are above 64 µg/mL, 2 µg/mL and 0.5 µg/mL.
In the case of `C[C@@](CCn1ccc(/C=C/c2ccccc2)cc1=O)(C(=O)NO)S(C)(=O)=O` [Example 2, (2R)-N-hydroxy-2-methyl-2-(methylsulfonyl)-4-{2-oxo-4-[(E)-2-phenylvinyl]pyridin-1(2H)-yl}butanamide], in assay [1], the AB-3167 (MIC) was determined as 64 µg/mL. In assay [2] (setting [4]), this compound showed a PA-7 (MIC) of 2 µg/mL. Further, in assay [3] (setting [5]), the EC-1 (MIC) was determined as 0.5 µg/mL.
Taken in the same sequence, the figures for `C[C@@](CCn1ccc(CCc2ccccc2)cc1=O)(C(=O)NO)S(C)(=O)=O` [Example 3, (2R)-N-hydroxy-2-methyl-2-(methylsulfonyl)-4-[2-oxo-4-(2-phenylethyl)pyridin-1(2H)-yl]butanamide] were 64 µg/mL, 4 µg/mL and 1 µg/mL.
In the same order, the values of `C[C@@](CCn1ccc(-c2ccc([C@H]3C[C@@H](O)C3)cc2)cc1=O)(C(=O)NO)S(C)(=O)=O` [Example 5, (2R)-N-hydroxy-4-{4-[4-(cis-3-hydroxycyclobutyl)phenyl]-2-oxopyridin-1(2H)-yl}-2-methyl-2-(methylsulfonyl)butanamide] are above 64 µg/mL, 2 µg/mL and 4 µg/mL.
Taken in the same sequence, the figures for `C[C@@](CCn1ccc(-c2ccc([C@H]3C[C@H](O)C3)cc2)cc1=O)(C(=O)NO)S(C)(=O)=O` [Example 6, (2R)-N-hydroxy-4-{4-[4-(trans-3-hydroxycyclobutyl)phenyl]-2-oxopyridin-1(2H)-yl}-2-methyl-2-(methylsulfonyl)butanamide] were above 64 µg/mL, 4 µg/mL and 4 µg/mL.
In turn, `C[C@@](CCn1ccc(-c2ccc(-c3ncc(Cl)cn3)cc2)cc1=O)(C(=O)NO)S(C)(=O)=O` [Example 458, (2R)-4-{4-[4-(5-chloropyrimidin-2-yl)phenyl]-2-oxopyridin-1(2H)-yl}-N-hydroxy-2-methyl-2-(methylsulfonyl)butanamide] displayed a PA-7 (MIC) in assay [2] (strain PA-7) of 0.5 µg/mL. The same compound registered an EC-1 (MIC) in assay [3] (strain EC-1) of 0.06 µg/mL.
In the same order, the values of `COc1c(F)cc(-c2ccn(CC[C@](C)(C(=O)NO)S(C)(=O)=O)c(=O)c2)cc1F` [Example 459] are 2 µg/mL and 2 µg/mL.
In the same order, the values of `Cc1cnc(-c2ccc(-c3ccn(CC[C@](C)(C(=O)NO)S(C)(=O)=O)c(=O)c3)cc2)nc1` [Example 461] are 1 µg/mL and 0.125 µg/mL.
In assay [2] (strain PA-7), `CCCCc1ccc(-c2ccn(CC[C@](C)(C(=O)NO)S(C)(=O)=O)c(=O)c2)cc1` [Example 464, (2R)-4-[4-(4-butylphenyl)-2-oxopyridin-1(2H)-yl]-N-hydroxy-2-methyl-2-(methylsulfonyl)butanamide] had a PA-7 (MIC) of 1 µg/mL. The compound further registered an EC-1 (MIC) in assay [3] (strain EC-1) of 0.03 µg/mL.
In the same order, the values of `CCCc1ccc(-c2ccn(CC[C@](C)(C(=O)NO)S(C)(=O)=O)c(=O)c2)cc1` [Example 465, (2R)-N-hydroxy-2-methyl-2-(methylsulfonyl)-4-[2-oxo-4-(4-propylphenyl)pyridin-1(2H)-yl]butanamide] are 0.5 µg/mL and 0.125 µg/mL.
Taken in the same sequence, the figures for `CC(C)c1cccc(-c2ccn(CC[C@](C)(C(=O)NO)S(C)(=O)=O)c(=O)c2)c1` [Example 466] were 4 µg/mL and 2 µg/mL.
In the same order, the values of `Cc1cc(-c2ccn(CC[C@](C)(C(=O)NO)S(C)(=O)=O)c(=O)c2)ccc1C#N` [Example 467] are 2 µg/mL and 4 µg/mL.
As to `COc1cccc(-c2ccn(CC[C@](C)(C(=O)NO)S(C)(=O)=O)c(=O)c2)c1C` [Example 468], the PA-7 (MIC) in assay [2] (strain PA-7) was 2 µg/mL. Further, the EC-1 (MIC) in assay [3] (strain EC-1) was 2 µg/mL.
The compound `COCCc1cccc(-c2ccn(CC[C@](C)(C(=O)NO)S(C)(=O)=O)c(=O)c2)c1` [Example 470] gave a PA-7 (MIC) in assay [2] (strain PA-7) of 32 µg/mL. In assay [3] (strain EC-1), this compound registered an EC-1 (MIC) of 16 µg/mL.
Taken in the same sequence, the figures for `Cc1cc(C#N)ccc1-c1ccn(CC[C@](C)(C(=O)NO)S(C)(=O)=O)c(=O)c1` [Example 472] were 8 µg/mL and 32 µg/mL.
In the same order, the values of `C[C@@](CCn1ccc(-c2ccc3cc(N)ncc3c2)cc1=O)(C(=O)NO)S(C)(=O)=O` [Example 473] are 16 µg/mL and 16 µg/mL.
In the same order, the values of `C[C@@](CCn1ccc(-c2cnc(-c3ccccc3)o2)cc1=O)(C(=O)NO)S(C)(=O)=O` [Example 474] are 64 µg/mL and 64 µg/mL.
In assay [2] (strain PA-7), `CC(C#N)Sc1cccc(-c2ccn(CC[C@](C)(C(=O)NO)S(C)(=O)=O)c(=O)c2)c1` (stereo partly drawn) [Example 475] displayed a PA-7 (MIC) of 8 µg/mL. In addition, the EC-1 (MIC) in assay [3] (strain EC-1) stood at 8 µg/mL.
Consider `Cc1ccc(-c2ccn(CC[C@](C)(C(=O)NO)S(C)(=O)=O)c(=O)c2)cc1C#N` [Example 476], for which the PA-7 (MIC) in assay [2] (strain PA-7) amounted to 8 µg/mL. Besides, in assay [3] (strain EC-1), the EC-1 (MIC) worked out at 16 µg/mL.
In the same order, the values of `COc1cc(-c2ccn(CC[C@](C)(C(=O)NO)S(C)(=O)=O)c(=O)c2)c(F)cc1C#N` [Example 477] are 32 µg/mL and 64 µg/mL.
For `COC(=O)CCc1ccc(-c2ccn(CC[C@](C)(C(=O)NO)S(C)(=O)=O)c(=O)c2)cc1` [Example 478], the PA-7 (MIC) in assay [2] (strain PA-7) worked out at 1 µg/mL. For the same compound, the EC-1 (MIC) in assay [3] (strain EC-1) is 2 µg/mL.
In the same order, the values of `CCOc1ccc(-c2ccn(CC[C@](C)(C(=O)NO)S(C)(=O)=O)c(=O)c2)cc1C#N` [Example 479] are 16 µg/mL and 64 µg/mL.
Taken in the same sequence, the figures for `C[C@@](CCn1ccc(-c2cccc(OC(F)F)c2)cc1=O)(C(=O)NO)S(C)(=O)=O` [Example 480] were 4 µg/mL and 8 µg/mL.
In the same order, the values of `C[C@@](CCn1ccc(-c2ccc3c(c2)C(=O)OCC3)cc1=O)(C(=O)NO)S(C)(=O)=O` [Example 481] are 64 µg/mL and above 64 µg/mL.
`COc1ccnc2ccc(-c3ccn(CC[C@](C)(C(=O)NO)S(C)(=O)=O)c(=O)c3)cc12` [Example 482] gave a PA-7 (MIC) in assay [2] (strain PA-7) above 64 µg/mL. This compound also displayed an EC-1 (MIC) in assay [3] (strain EC-1) above 64 µg/mL.
In turn, `Cn1c(=O)sc2cc(-c3ccn(CC[C@](C)(C(=O)NO)S(C)(=O)=O)c(=O)c3)ccc21` [Example 483] yielded a PA-7 (MIC) in assay [2] (strain PA-7) of 8 µg/mL. The compound further displayed an EC-1 (MIC) in assay [3] (strain EC-1) of 8 µg/mL.
As to `C[C@@](CCn1ccc(-c2ccc3cnc(N)cc3c2)cc1=O)(C(=O)NO)S(C)(=O)=O` [Example 485], in assay [2] (strain PA-7), the PA-7 (MIC) turned out to be 32 µg/mL. For the same compound, the EC-1 (MIC) in assay [3] (strain EC-1) was 64 µg/mL.
Taken in the same sequence, the figures for `C[C@@](CCn1ccc(-c2ccc3c(c2)C(=O)OC3)cc1=O)(C(=O)NO)S(C)(=O)=O` [Example 486] were above 64 µg/mL and above 64 µg/mL.
In the same order, the values of `CC(CCn1ccc(OCCCC2CCCC2)cc1=O)(C(=O)NO)S(C)(=O)=O` (stereo not drawn) [Example 488, 4-[4-(3-cyclopentylpropoxy)-2-oxopyridin-1(2H)-yl]-N-hydroxy-2-methyl-2-(methylsulfonyl)butanamide] are 64 µg/mL and 8 µg/mL.
